Assay results reported in patent publication US6974804B2, “Esters” (Unilever Home & Personal Care USA, division of Conopco, Inc., priority 2000, dated 2005).

Assay: Gelling of water-immiscible cosmetic liquids in 96 well glass micro-titre plate
Assay type: physicochemical
Set-up: key: gel; g4: gel after overnight (18 hrs) storage at 4° C.; g22: gel after overnight (18 hrs) storage at 22° C.; sg: soft gel; sg22: soft gel after overnight (18 hrs) storage at 22° C.; solution; *: the test at 4° C. was not carried out
Conditions: for gelling of ISA: 150° C. 2.5 hours, cooled to ambient
Experimental: In this Example, various samples of esterified cellobiose prepared as in Example 1 or 2 above, were used to gel water-immiscible cosmetic liquids, in accordance with the procedure given below, in which a large number of gels can be prepared simultaneously.
The samples were tested in a 96 well (8×12 rows) glass micro-titre plate. […] About 0.01 or 0.02 g of each esterified cellobiose material was placed into 8 consecutive wells in a single row, so that each well contained approximately 5% or 10% of the cellobiose ester. The balance in each well comprised the cosmetic liquid by addition of approximately 0.2 g of the respective liquid to each cell. A glass lid was placed on top of the plate. The plate was carefully placed in a thermostatically controlled fan-assisted oven set at 150° C. for 2.5 hours. The plate was removed from the oven and allowed to cool naturally to ambient laboratory temperature. The contents of the wells were assessed at the end of the cooling period, by visual inspection and by poking the contents of each well with a micro-spatula. The plates were stored at […] for 18 hours and the contents inspected, and further stored for 18 hours at 4° C. and inspected for a third time. The results obtained in the tests are summarised in Table 5 below, in which the legend is as follows: […]

[1] = 5% cellobiose ester in Fluid AP
[2] = 5% cellobiose ester in Mineral oil
[3] = 5% cellobiose ester in Polydecene
[4] = 10% cellobiose ester in Fluid AP
[5] = 10% cellobiose ester in Mineral oil
[6] = 10% cellobiose ester in Polydecene

| SMILES | gelling of DC556 (5% cellobiose ester in DC556) | gelling of Fluid AP [1] | gelling of ISA (5% cellobiose ester in ISA) | gelling of Mineral oil [2] | gelling of Polydecene [3] | gelling of DC556 (10% cellobiose ester in DC556) | gelling of Fluid AP [4] | gelling of ISA (10% cellobiose ester in ISA) | gelling of Mineral oil [5] | gelling of Polydecene [6] | gelling of IPM (5% cellobiose ester in IPM) | gelling of IPM (10% cellobiose ester in IPM) |
| --- | --- | --- | --- | --- | --- | --- | --- | --- | --- | --- | --- | --- |
| CCCCCCCCCCCCCCCC(=O)OC1OC(COC(=O)CCCCCCCCC)C(OC2OC(COC(=O)CCCCCCCCC)C(OC(=O)CCCCCCCCC)C(OC(=O)CCCCCCCCC)C2OC(=O)CCCCCCCCC)C(OC(=O)CCCCCCCCC)C1OC(=O)CCCCCCCCC (mixture of isomers) [Ex 2.12] | gel | gel | g22 | gel | gel | gel | gel | gel | gel | gel | – | – |
| CCCCCCCCC(=O)OCC1OC(OC2C(COC(=O)CCCCCCCC)OC(OC(=O)CCCC)C(OC(=O)CCCCCCCC)C2OC(=O)CCCCCCCC)C(OC(=O)CCCCCCCC)C(OC(=O)CCCCCCCC)C1OC(=O)CCCCCCCC (mixture of isomers) [Ex 1.20] | g22 | g22 | sg22 | g22 | gel | g22 | gel | g22 | g22 | gel | – | – |
| CCCCCCCCC(=O)OCC1OC(OC2C(COC(=O)CCCCCCCC)OC(OC(=O)C3CCCCC3)C(OC(=O)CCCCCCCC)C2OC(=O)CCCCCCCC)C(OC(=O)CCCCCCCC)C(OC(=O)CCCCCCCC)C1OC(=O)CCCCCCCC (mixture of isomers) [Ex 1.11] | g22 | gel | g22 | g22 | gel | gel | gel | g22 | g22 | gel | sol | sol |
| CCCCCCCCCCCC(=O)OC1OC(COC(=O)CCCCCCCC)C(OC2OC(COC(=O)CCCCCCCC)C(OC(=O)CCCCCCCC)C(OC(=O)CCCCCCCC)C2OC(=O)CCCCCCCC)C(OC(=O)CCCCCCCC)C1OC(=O)CCCCCCCC (mixture of isomers) [Ex 1.23] | gel | sg | g22 | g22 | gel | gel | gel | g22 | g22 | gel | – | – |
| CCCCCCCCC(=O)OCC1OC(OC2C(COC(=O)CCCCCCCC)OC(OC(=O)CC)C(OC(=O)CCCCCCCC)C2OC(=O)CCCCCCCC)C(OC(=O)CCCCCCCC)C(OC(=O)CCCCCCCC)C1OC(=O)CCCCCCCC (mixture of isomers) [Ex 1.16] | gel | gel | gel | gel | gel | gel | gel | gel | gel | gel | – | – |
| CCCCCCCCCC(=O)OCC1OC(OC2C(COC(=O)CCCCCCCCC)OC(OC(C)=O)C(OC(=O)CCCCCCCCC)C2OC(=O)CCCCCCCCC)C(OC(=O)CCCCCCCCC)C(OC(=O)CCCCCCCCC)C1OC(=O)CCCCCCCCC (mixture of isomers) [Ex 2.5] | gel | gel | gel | gel | gel | – | – | – | – | – | – | – |
| CCCCCCCCC(=O)OCC1OC(OC2C(COC(=O)CCCCCCCC)OC(OC(=O)CCC)C(OC(=O)CCCCCCCC)C2OC(=O)CCCCCCCC)C(OC(=O)CCCCCCCC)C(OC(=O)CCCCCCCC)C1OC(=O)CCCCCCCC (mixture of isomers) [Ex 1.18] | gel | gel | sg22 | g22 | gel | gel | gel | gel | gel | gel | – | – |
| CCCCCCCCCCCCCCCC(=O)OC1OC(COC(=O)CCCCCCCCC)C(OC2OC(COC(=O)CCCCCCCCC)C(OC(=O)CCCCCCCCC)C(OC(=O)CCCCCCCCC)C2OC(=O)CCCCCCCCC)C(OC(=O)CCCCCCCCC)C1OC(=O)CCCCCCCCC (mixture of isomers) [Ex 2.13] | gel | gel | gel | gel | gel | gel | gel | gel | gel | gel | – | – |
| CCCCCCCCC(=O)OCC1OC(OC2C(COC(=O)CCCCCCCC)OC(OC(=O)CCCCCC)C(OC(=O)CCCCCCCC)C2OC(=O)CCCCCCCC)C(OC(=O)CCCCCCCC)C(OC(=O)CCCCCCCC)C1OC(=O)CCCCCCCC (mixture of isomers) [Ex 1.22] | g22 | gel | sg22 | sol | gel | g22 | gel | g22 | g22 | gel | – | – |
| CCCCCCCCCC(=O)OCC1OC(OC2C(COC(=O)CCCCCCCCC)OC(OC(C)=O)C(OC(=O)CCCCCCCCC)C2OC(=O)CCCCCCCCC)C(OC(=O)CCCCCCCCC)C(OC(=O)CCCCCCCCC)C1OC(=O)CCCCCCCCC (mixture of isomers) [Ex 2.3] | gel | gel | gel | gel | gel | gel | gel | gel | gel | gel | – | – |
| CCCCCCCCC(=O)OCC1OC(OC2C(COC(=O)CCCCCCCC)OC(OC(=O)c3ccc(-c4ccccc4)cc3)C(OC(=O)CCCCCCCC)C2OC(=O)CCCCCCCC)C(OC(=O)CCCCCCCC)C(OC(=O)CCCCCCCC)C1OC(=O)CCCCCCCC (mixture of isomers) [Ex 1.15] | gel | gel | gel | gel | gel | gel | gel | gel | gel | gel | – | – |
| CCCCCCCCCC(=O)OCC1OC(OC2C(COC(=O)CCCCCCCCC)OC(OC(=O)CCCCC)C(OC(=O)CCCCCCCCC)C2OC(=O)CCCCCCCCC)C(OC(=O)CCCCCCCCC)C(OC(=O)CCCCCCCCC)C1OC(=O)CCCCCCCCC (mixture of isomers) [Ex 2.11] | gel | gel | gel | gel | gel | gel | gel | gel | gel | gel | – | – |
| CCCCCCCCCC(=O)OCC1OC(OC2C(COC(=O)CCCCCCCCC)OC(OC(C)=O)C(OC(=O)CCCCCCCCC)C2OC(=O)CCCCCCCCC)C(OC(=O)CCCCCCCCC)C(OC(=O)CCCCCCCCC)C1OC(=O)CCCCCCCCC (mixture of isomers) [Ex 2.4] | gel | gel | gel | gel | gel | – | – | – | – | – | – | – |
| CCCCCCCCC(=O)OCC1OC(OC2C(COC(=O)CCCCCCCC)OC(OC(=O)CCCCC)C(OC(=O)CCCCCCCC)C2OC(=O)CCCCCCCC)C(OC(=O)CCCCCCCC)C(OC(=O)CCCCCCCC)C1OC(=O)CCCCCCCC (mixture of isomers) [Ex 1.21] | g22 | gel | sg22 | g22 | gel | gel | gel | g22 | g22 | gel | – | – |
| CCCCCCCCCC(=O)OCC1OC(OC2C(COC(=O)CCCCCCCCC)OC(OC(=O)c3ccccc3)C(OC(=O)CCCCCCCCC)C2OC(=O)CCCCCCCCC)C(OC(=O)CCCCCCCCC)C(OC(=O)CCCCCCCCC)C1OC(=O)CCCCCCCCC (mixture of isomers) [Ex 2.2] | gel | gel | gel | gel | gel | gel | gel | gel | gel | gel | – | – |
